The record followed here is US4226883A, “Carbamate derivatives and method for manufacture thereof” (priority 1974, dated 1980).

Series [1] deals with green rice leafhoppers of the strain RN. As to the kind of experiment: Test Example 3: dust spray test (20 mesh metal gauze cylinder). In kind it is in vivo, Nephotettix cincticeps. To be noted: 24 hr.
Series [2] concerns Culex pipiens pallens immunized against organophosphoric preparations, last larval state. Nature of the series: Test Example 9 (W.H.O. method): mosquito larvae test. The format is in vivo. To be noted: Culex pipiens, 24 h, read-out: Effect of compound used singly, LD50 (Table 16). Here is the method:
(1) An ethyl alcohol solution of each test compound was diluted with water to varying concentrations in the range of from 0.01 to 1.0 ppm.
(2) A 200-ml portion of each solution of a different concentration was placed in a 300-ml beaker. Then 30 test insects were plunged into the solution and then removed.
(3) The insects removed from the solution were kept in a greenhouse at a constant temperature of 25±1° C. for 24 hours. At the end of 24 hours of standing, a count was taken of the number of insects that had died by that time.
The test described above was repeated twice or thrice.

In series [3] the test system is resistant green rice leafhoppers (R). To be noted: for Insecticidal Activity R/S (resistant ratio): ratio of the resistant strain to the susceptible strain (LD50), 1440 min. Put shortly:
(§1)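 Test compounds were diluted in acetone and applied topically to the thorax of female green rice leafhoppers at 0.2 μl per head. Insects were then held in cups with […] at 26±1 °C, and mortality was counted after 24 h. LD50 for mixtures is expressed as total dosage.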

In series [4] the test system is citrus red mites (Panonychus citri McGregor) immunized from Dimethoate. Nature of the series: whole plant or invertebrate. To be noted: foliar, 24 h, read-out: Mortality (%), Concentration 250 ppm.
Series [5] relates to sensitive green rice leafhoppers (S). To be noted: susceptible strain, topical. In outline:
as §1

Series [6] concerns cholinesterase (ChE), resistant strain. The format is biochemical, green rice leafhopper, Nephotettix cincticeps. To be noted: for Inhibition of Cholinesterase R/S (resistant ratio): ratio of the resistant strain to the susceptible strain (I50), 30 min; for IC50: resistant strain, 50% inhibition concentration, 30° C. 30 min with inhibitor, read-out: Inhibition of Cholinesterase I50 (M) R. The protocol: After centrifuged (30,000 g, 10 min.), the supernatant was used as the source of ChE.
(§2) (2) Inhibition: 1.0 ml of enzyme solution was incubated with 0.1 ml of inhibitor which diluted with acetone at 30° C. for 30 min. ((2) solution).
(3) Determination of ChE activity: 1.0 ml of acetylthiochline (3.5/2×10^-2 M), 1.0 ml of DTNB (5,5'-dithiobis-2-nitrobenzoic acid, 2.5×10^-4 M) and 4.0 ml of phosphate buffer (1/15 M, pH 7.4) were added to the (2) solution and incubated at 30° C. for 10 min.

For series [7], the target named is cholinesterase (ChE), susceptible strain. As to the kind of experiment: Inhibition of cholinesterase (acetylthiocholine method), susceptible strain enzyme. In kind it is biochemical, green rice leafhopper, Nephotettix cincticeps. To be noted: 50% inhibition concentration, 30° C. 30 min with inhibitor, read-out: Inhibition of Cholinesterase I50 (M) S. Here is the method:
The activity of ChE was performed by the acethyethiocholine method [Ellman (1961), Biochemical Pharmacology 7: 88-95].
[…]. After centrifuged (30,000 g, 10 min.), the supernatant was used as the source of ChE.
as §2
(3) Determination of ChE activity: 1.0 ml of acetylthiochline (3.5/2×10^-2 M), 1.0 ml of DTNB (5,5'-dithiobis-2-nitrobenzoic acid, 2.5×10^-4 M) and 4.0 ml of phosphate buffer (1/15 M, pH 7.4) were added to the (2) solution and incubated at 30° C. for 10 min. After incubation, […] of eserine (2×10^-3 M) was added in order to stop the enzyme reaction and the optical density of the yellow solution was measured at 412 mμ on the spectrophotometer.

Where two headings read alike, the source gives them in different places.

Turning to `CCCNC(=O)Oc1cccc(C)c1` [Compound 26, 3-methylphenyl-N-n-propylcarbamate], the mortality at 100 mg/cylinder came to 70% in series [1] (2% dust, 100 mg, read-out: Mortality (%) after 24 hr., 100 mg Spray (Table 7)) and 70% in series [1] (Table 8, dust 100 mg, read-out: Mortality (%) after 24 hr., Spray Volume 100 mg). The mortality at 250 mg/cylinder in series [1] (2% dust, 250 mg, read-out: Mortality (%) after 24 hr., 250 mg Spray (Table 7)) turned out to be 100%; in series [1] (Table 8, dust 250 mg, read-out: Mortality (%) after 24 hr., Spray Volume 250 mg), 100%. For the same molecule, the LC50 in series [2] was over 1 µg/mL. Also, in series [3], the “Insecticidal Activity R/S (resistant ratio)” value came out at 0.6. Also, the mortality at 250 ppm in series [4] is 85%.
With `CNC(=O)Oc1cccc(C(C)(C)C)c1` [Compound 32, 3-tert-butylphenyl-N-methylcarbamate, reference compound], the “Insecticidal Activity R/S (resistant ratio)” value in series [3] came out at 31.3. Also, in series [3] (resistant strain, topical, 24 hrs), the “Insecticidal Activity (after 24 hrs.) LD50 (μg/g) R” value stood at 50.0 µg/g. For the same molecule, the “Insecticidal Activity (after 24 hrs.) LD50 (μg/g) S” value in series [5] was 1.6 µg/g. In addition, the “Inhibition of Cholinesterase R/S (resistant ratio)” value in series [6] is given as 16.6. Besides, the IC50 in series [6] was determined as 1.2e-05 M; in series [7] it was 7.2e-07 M.
Turning to `CCc1ccc(OC(=O)NC)cc1CC` [Compound 50, reference compound], in series [6], the “Inhibition of Cholinesterase R/S (resistant ratio)” value worked out at 46.4 and the IC50 is 5.1e-05 M. In addition, in series [4], the mortality at 250 ppm amounted to 70%. In series [7], the IC50 stood at 1.1e-06 M.
